Assay results from article PMC12673918, “Design, Synthesis, and Selective Antiproliferative Activity of Indolizine Derivatives as Microtubule Destabilizers” (Archiv Der Pharmazie, 2025).

Assays:
Type in all cases: cell-based
[1] = test system: HGC‐27 (gastric carcinoma); experiment: Resazurin cell viability assay, HGC‐27; settings: 50 µM, 72 h, mean ± SD, n = 3; for inhibition at 50 µM: Homo sapiens, HGC-27, read-out: % Cellular growth inhibition (at 50 µM) HGC‐27
Experimental: (§1) The tongue squamous cell carcinoma cell line CAL‐27 (ATCC CRL‐2095), breast carcinoma BT‐20 (ATCC HTB‐19), gastric carcinoma HGC‐27 (BCRJ Code 0310), and normal oral fibroblast OHMF (culture of fibroblasts derived from human oral healthy mucosa, approved by the Research Ethics Committee of the University of São Paulo, Campus of Ribeirão Preto, Brazil (with protocol number 049) were cultured in DMEM medium (DMEM, Sigma‐Aldrich, St. Louis, MO, USA) supplemented with 10% fetal bovine serum and a solution of penicillin (100 U/mL) and streptomycin (100 μg/mL). The cultures were maintained in a humidified incubator with 5% CO₂ at 37°C.
(§2) Cell viability was analyzed using the resazurin assay. For this, cells were seeded in 96‐well plates (1 × 10^3 cells per well) and incubated at 37°C with 5% CO₂ overnight for cell adhesion. Subsequently, the cells were treated with different compounds (0–50 µM) for 72 h. After treatment, the medium was replaced with phenol‐free DMEM medium (Sigma‐Aldrich) containing resazurin at a concentration of 44 µM (Sigma‐Aldrich). After incubation for 4 h at 37°C, fluorescence detection was performed (excitation 530/25 nm, emission 590/35 nm) using a microplate fluorimeter (Synergy 2, Biotek). Initial cell growth inhibition assays were performed in triplicate or quadruplicate, while IC50 determinations were conducted in triplicate. Data were plotted, and IC₅₀ values were determined by nonlinear regression using GraphPad Prism software 9.0.
(§3) ^a Cell viability was assessed using the resazurin assay after 72 hours of compound treatment. Fluorescence was measured to estimate % of cellular growth inhibition at 50 µM values, based on triplicate experiments.
(§4) ^b IC50 values were determined using the same resazurin-based assay, with fluorescence measurements performed after 72 hours of treatment. These experiments were carried out in triplicate.

human P2X4 receptor = biological target: T1, human P2X4 receptor (Homo sapiens, UniProt Q99571); experiment: Ca2+‐flux assay for the hP2X4 receptor; settings: for inhibition at 10 µM: read-out: % Inhibition of P2X4R at 10 µM compounds’ concentration
T1 construct: expressed in transfected cells; host or cells: human 1321N1 astrocytoma cells
T1 sequence (Q99571 1-388): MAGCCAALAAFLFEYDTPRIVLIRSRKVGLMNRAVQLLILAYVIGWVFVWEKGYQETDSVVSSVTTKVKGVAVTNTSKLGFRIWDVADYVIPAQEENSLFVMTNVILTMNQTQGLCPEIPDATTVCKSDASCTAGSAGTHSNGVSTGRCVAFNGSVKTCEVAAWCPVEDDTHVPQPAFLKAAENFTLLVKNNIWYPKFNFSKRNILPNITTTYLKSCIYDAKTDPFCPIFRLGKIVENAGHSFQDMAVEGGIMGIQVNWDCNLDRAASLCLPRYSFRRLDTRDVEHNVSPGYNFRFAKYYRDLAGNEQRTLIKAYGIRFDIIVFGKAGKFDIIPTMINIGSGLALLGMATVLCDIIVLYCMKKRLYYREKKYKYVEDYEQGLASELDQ
Experimental: Human 1321N1 astrocytoma cells stably expressing the human P2X4 receptor (generated in‐house) were cultured in Dulbecco's Modified Eagle Medium supplemented with 9% (v/v) FCS, 1% (v/v) Penicillin/Streptomycin (10000 I.U./mL, 10 mg/mL in 0.9% NaCl) and puromycin (1 µg/mL) as a selection antibiotic at 37°C and 5% CO2. Cells were subcultured in cell culture 75 cm^2 flasks and split every 2–4 days (1:5; 1:6) once confluent.
1321N1 cells stably expressing human P2X4 receptor were seeded into black‐walled 96‐well plates (Thermo Fisher Scientific) at 2.5 × 10^4 cells/well and incubated at 37°C for 24–48 h. All test compounds were diluted in assay buffer solution (SBS: 135 mM NaCl; 5 mM KCl; 1 mM MgCl2.6 H2O; 1.8 mM CaCl2; 5.6 mM D‐Glucose; 10 mM HEPES, 0.1% (m/v) BSA, 0.05% (m/v) gelatine, 2.3 mM probenecid). The culture medium was removed, and 100 µL of 4 μM fluorescent Ca^2+ indicator Calbryte520AM in SBS was added and incubated at 37°C for 1 h. The dye solution was then removed, 100 µL of SBS solution and 50 µL of antagonist dilutions (10^–5–10^–9 M) in SBS were added, and the cells were incubated at room temperature for an extra 30 min. Finally, 50 µL of ATP (at a concentration of the previously determined EC50‐ value) was added by using FlexStation 3 Multi‐Mode Microplate Reader (Molecular Devices, San Jose, CA, USA, Software SoftMax7 Pro). The changes in intracellular Ca^2+ ion concentrations were monitored over 200 s (20 s baseline) by measuring the fluorescence signal at λ ex = 494 nm and λ em = 516 nm ([…] cut‐off). The concentration‐dependent decrease in Ca^2+‐flux, expressed as RFU, was plotted against the concentrations of the compounds.

human P2X7 receptor = biological target: T2, human P2X7 receptor (Homo sapiens, UniProt Q99572); experiment: YO‐PRO‐1 dye uptake assay for the P2X7 receptor; settings: for inhibition at 10 µM: P2X7, read-out: % Inhibition of P2X7R at 10 µM compounds’ concentration
T2 construct: host or cells: HEK-293
T2 sequence (Q99572 1-595): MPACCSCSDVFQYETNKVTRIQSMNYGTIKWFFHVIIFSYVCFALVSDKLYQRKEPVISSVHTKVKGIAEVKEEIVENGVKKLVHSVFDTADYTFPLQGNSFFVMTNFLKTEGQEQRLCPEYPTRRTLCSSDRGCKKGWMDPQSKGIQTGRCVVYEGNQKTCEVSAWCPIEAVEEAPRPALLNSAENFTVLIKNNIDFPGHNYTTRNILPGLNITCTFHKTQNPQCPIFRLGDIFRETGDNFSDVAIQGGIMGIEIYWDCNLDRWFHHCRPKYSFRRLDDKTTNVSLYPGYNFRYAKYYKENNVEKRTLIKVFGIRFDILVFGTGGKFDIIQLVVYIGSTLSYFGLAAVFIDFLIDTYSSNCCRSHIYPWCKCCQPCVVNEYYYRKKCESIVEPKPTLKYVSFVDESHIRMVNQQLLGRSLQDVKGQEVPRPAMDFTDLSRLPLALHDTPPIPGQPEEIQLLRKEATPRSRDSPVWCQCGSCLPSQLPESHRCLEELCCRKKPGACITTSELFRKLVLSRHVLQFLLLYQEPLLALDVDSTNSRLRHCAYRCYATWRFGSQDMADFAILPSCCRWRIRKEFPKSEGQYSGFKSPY
Experimental: HEK‐293 cell lines stably expressing human P2X7 receptor (hP2X7R‐HEK‐293, B'SYS GmbH, Witterswil, Switzerland) were maintained in a 50/50 mix of Dulbecco's Modified Eagle Medium and F12 medium (DMEM/F12) supplemented with 9% (v/v) FCS, 1% (v/v) Penicillin/Streptomycin (10000 I.U./mL, 10 mg/mL in 0.9% NaCl) and G418 (100 µg/mL) at 37°C and 5% CO2. Cells were subcultured in cell culture 75 cm^2 flasks and split every 2‐4 days (1:3; 1:6; 1:10) once confluent.
HEK‐293 cell lines stably expressing human P2X7 receptor were seeded into black‐walled Nunc 96‐well optical bottom plates (Thermo Fisher Scientific) at 2.0–4.0 × 10^4 cells/well and incubated at 37°C for 24–48 h. After removing the culture medium, cells were washed with 100 µL wash buffer (280 mM Sucrose; 5.6 mM KCl; 0.5 mM CaCl2; 10 mM D‐Glucose; 10 mM HEPES; 5 mM N‐Methyl‐D‐glucamine (pH 7.4)). Then, 50 µL assay buffer (280 mM Sucrose; 6.4 mM KCl, 10 mM D‐Glucose; 10 mM HEPES; 5.0 mM N‐Methyl‐D‐glucamine (pH 7.4)) and 50 µL of antagonist dilutions (10^–5–10^–9 M) in assay buffer were added, and the cells were incubated at 37°C for 30 min. […] Finally, the uptake of YO‐PRO‐1 dye was recorded in a 9‐point‐well scan by following the fluorescence change using a FlexStation 3 Multi‐Mode Microplate Reader (Molecular Devices, San Jose, CA, USA, Software SoftMax7 Pro, endpoint protocol, well scan with reading pattern “fill scan”, λ ex = 485 nm, λ em = 535 nm). To determine the concentration‐dependent uptake inhibition by antagonists, the YO‐PRO‐1 uptake, expressed as RFU, was plotted against the concentrations of the compounds.

CAL‐27 (oral carcinoma) = experiment: Resazurin cell viability assay, CAL‐27; settings: 50 µM, 72 h, mean ± SD, n = 3; for inhibition at 50 µM: Homo sapiens, CAL-27, read-out: % Cellular growth inhibition (at 50 µM) CAL‐27
Experimental: as §1, §2, §3, §4

BT‐20 (breast carcinoma) = experiment: Resazurin cell viability assay, BT‐20; settings: 50 µM, 72 h, mean ± SD, n = 3; for inhibition at 50 µM: Homo sapiens, BT-20, read-out: % Cellular growth inhibition (at 50 µM) BT‐20
Experimental: as §1, §2, §3, §4

[2] = test system: CAL‐27, BT‐20 and HGC‐27 cancer cell lines; experiment: Resazurin antiproliferative screening, cancer cell line panel; settings: 50 μM, 70% inhibition threshold
Experimental: as §1, §2

CCOC(=O)c1cn2cc(OC)ccc2c1C(=O)c1cc(OC)c(OC)c(OC)c1 [Compound 8d, Ethyl [6‐methoxy‐1‐(3,4,5‐trimethoxybenzoyl)indolizine]‐2‐carboxylate]
% Cellular growth inhibition (at 50 µM) HGC‐27 [1]: 44 ± 1.9%
% Inhibition of P2X4R at 10 µM compounds’ concentration (human P2X4 receptor; 10 μM): 2%
% Inhibition of P2X7R at 10 µM compounds’ concentration (human P2X7 receptor; 10 μM): -10%
% Cellular growth inhibition (at 50 µM) CAL‐27 (CAL‐27 (oral carcinoma)): 66 ± 0.8%
% Cellular growth inhibition (at 50 µM) BT‐20 (BT‐20 (breast carcinoma)): 55 ± 4.7%
level of inhibition in the 50 µM screening [2]: ≤ 70%

COc1ccc2c(C(=O)c3ccccc3)ccn2c1 [Compound 7a, (6‐methoxyindolizin‐1‐yl)(phenyl)methanone]
inhibition at 50 µM [1]: 18 ± 0.5%
inhibition at 10 µM (human P2X4 receptor): -7%
inhibition at 10 µM (human P2X7 receptor): -6%
inhibition at 50 µM (CAL‐27 (oral carcinoma)): 20 ± 0.9%
inhibition at 50 µM (BT‐20 (breast carcinoma)): 20 ± 0.4%

COc1ccc2c(C(=O)c3ccc(Cl)cc3)ccn2c1 [Compound 7b, (4‐chlorophenyl)(6‐methoxyindolizin‐1‐yl)methanone]
inhibition at 50 µM [1]: 10 ± 1.4%
inhibition at 10 µM (human P2X4 receptor): 1%
inhibition at 10 µM (human P2X7 receptor): 4%
inhibition at 50 µM (CAL‐27 (oral carcinoma)): 23 ± 1%
inhibition at 50 µM (BT‐20 (breast carcinoma)): 8 ± 1.3%

O=C(c1ccc(Cl)cc1)c1ccn2ccccc12 [Compound 6b, (4‐chlorophenyl)(indolizin‐1‐yl)methanone]
inhibition at 50 µM [1]: 26 ± 1%
inhibition at 10 µM (human P2X4 receptor): -3%
inhibition at 10 µM (human P2X7 receptor): 10%
inhibition at 50 µM (CAL‐27 (oral carcinoma)): 25 ± 0.4%
inhibition at 50 µM (BT‐20 (breast carcinoma)): 32 ± 0.8%

Cc1ccc(C(=O)c2ccn3ccccc23)cc1 [Compound 6c, (Indolizin‐1‐yl)(p‐tolyl)methanone]
inhibition at 50 µM [1]: 20 ± 0.6%
inhibition at 10 µM (human P2X4 receptor): 3%
inhibition at 10 µM (human P2X7 receptor): -8%
inhibition at 50 µM (CAL‐27 (oral carcinoma)): 22 ± 2.6%
inhibition at 50 µM (BT‐20 (breast carcinoma)): 28 ± 1.3%

CCCCCc1cn2cc(OC)ccc2c1C(=O)c1cc(OC)c(OC)c(OC)c1 [Compound 8i, (6‐methoxy‐2‐pentylindolizin‐1‐yl)(3,4,5‐trimethoxyphenyl)methanone]
inhibition at 50 µM [1]: 61 ± 1.5%
inhibition at 10 µM (human P2X4 receptor): -1%
inhibition at 10 µM (human P2X7 receptor): 6%
inhibition at 50 µM (CAL‐27 (oral carcinoma)): 57 ± 2.5%
inhibition at 50 µM (BT‐20 (breast carcinoma)): 38 ± 3.5%

COc1ccc(C(=O)c2ccn3ccccc23)cc1 [Compound 6d, (Indolizin‐1‐yl)(4‐methoxyphenyl)methanone]
inhibition at 50 µM [1]: 24 ± 1.1%
inhibition at 10 µM (human P2X4 receptor): 0%
inhibition at 10 µM (human P2X7 receptor): 5%
inhibition at 50 µM (CAL‐27 (oral carcinoma)): 18 ± 0.6%
inhibition at 50 µM (BT‐20 (breast carcinoma)): 28 ± 0.5%

CCOc1cn2cc(OC)ccc2c1C(=O)c1cc(OC)c(OC)c(OC)c1 [Compound 8c, (2‐ethoxy‐6‐methoxyindolizin‐1‐yl)(3,4,5‐trimethoxyphenyl)methanone]
inhibition at 50 µM [1]: 43 ± 3.5%
inhibition at 10 µM (human P2X4 receptor): 10%
inhibition at 10 µM (human P2X7 receptor): 3%
inhibition at 50 µM (CAL‐27 (oral carcinoma)): 56 ± 4.6%
inhibition at 50 µM (BT‐20 (breast carcinoma)): 55 ± 4.7%

O=C(c1ccc(Cl)c(Cl)c1)c1ccn2ccccc12 [Compound 6e, (3,4‐dichlorophenyl)(indolizin‐1‐yl)methanone]
inhibition at 50 µM [1]: 41 ± 1%
inhibition at 10 µM (human P2X4 receptor): 9%
inhibition at 10 µM (human P2X7 receptor): 7%
inhibition at 50 µM (CAL‐27 (oral carcinoma)): 42 ± 0.8%
inhibition at 50 µM (BT‐20 (breast carcinoma)): 40 ± 0.4%
